{"source": "ChEMBL document CHEMBL5038615", "about": "“Discovery of a cinnamyl piperidine derivative as new neddylation inhibitor for gastric cancer treatment” (Eur J Med Chem, 2021)", "key": {"[1]": {"tested_on": "MGC-803", "assay": "Induction of apoptosis in human MGC-803 cells assessed as early apoptotic cells at 2.5 uM measured after 24 hrs by AnnexinV/FITC staining based flow cytometry method (reference value: 1.3%)", "assay_type": "functional"}, "[2]": {"tested_on": "MGC-803", "assay": "Induction of apoptosis in human MGC-803 cells assessed as viable cells at 5 uM measured after 24 hrs by AnnexinV/FITC staining based flow cytometry method (reference value: 94.8%)", "assay_type": "functional", "settings": "read-out: Activity"}, "[3]": {"tested_on": "MGC-803", "assay": "Cell cycle arrest in human MGC-803 cells assessed as accumulation of cells at G2/M phase at 7.5 uM measured after 24 hrs by Flowcytometry assay (reference value: 13.71%)", "assay_type": "functional"}, "[4]": {"assay": "Cytotoxicity against human GES1 cells assessed as inhibition of cell proliferation measured after 72 hrs by MTT assay", "assay_type": "toxicity, cell-based"}, "[5]": {"tested_on": "HGC-27", "assay": "Induction of apoptosis in human HGC-27 cells assessed as late apoptotic cells at 3 uM measured after 48 hrs by AnnexinV/FITC staining based flow cytometry method (reference value: 1%)", "assay_type": "functional"}, "[6]": {"tested_on": "MCF7", "assay": "Antiproliferative activity against human MCF7 cells assessed as inhibition of cell proliferation measured after 72 hrs by MTT assay", "assay_type": "functional, cell-based", "settings": "MCF7, 72 h"}, "[7]": {"tested_on": "HGC-27", "assay": "Induction of apoptosis in human HGC-27 cells assessed as viable cells at 9 uM measured after 48 hrs by AnnexinV/FITC staining based flow cytometry method (reference value: 93.18%)", "assay_type": "functional", "settings": "read-out: Activity"}, "[8]": {"tested_on": "MGC-803", "assay": "Cell cycle arrest in human MGC-803 cells assessed as accumulation of cells at S phase at 7.5 uM measured after 24 hrs by Flowcytometry assay (reference value: 36.51%)", "assay_type": "functional"}, "[9]": {"tested_on": "MGC-803", "assay": "Induction of apoptosis in human MGC-803 cells assessed as necrotic cells at 5 uM measured after 24 hrs by AnnexinV/FITC staining based flow cytometry method (reference value: 1.9%)", "assay_type": "functional"}, "[10]": {"tested_on": "MGC-803", "assay": "Cell cycle arrest in human MGC-803 cells assessed as accumulation of cells at G2/M phase at 5 uM measured after 24 hrs by Flowcytometry assay (reference value: 13.71%)", "assay_type": "functional"}, "[11]": {"tested_on": "HGC-27", "assay": "Induction of apoptosis in human HGC-27 cells assessed as necrotic cells at 9 uM measured after 48 hrs by AnnexinV/FITC staining based flow cytometry method (reference value: 0.1%)", "assay_type": "functional"}, "[12]": {"tested_on": "MGC-803", "assay": "Induction of apoptosis in human MGC-803 cells assessed as early apoptotic cells at 5 uM measured after 48 hrs by AnnexinV/FITC staining based flow cytometry method (reference value: 1.5%)", "assay_type": "functional"}, "[13]": {"tested_on": "MGC-803", "assay": "Antitumour activity against human MGC-803 cells xenografted in NOD-SCID mouse assessed as reduction on tumour growth at 50 mg/kg/day, IG measured after 21 days relative to control", "assay_type": "functional", "settings": "MGC-803, po, 504 h, time 21 day, read-out: TGI"}, "[14]": {"tested_on": "MGC-803", "assay": "Induction of apoptosis in human MGC-803 cells assessed as viable cells at 2.5 uM measured after 48 hrs by AnnexinV/FITC staining based flow cytometry method (reference value: 97.4%)", "assay_type": "functional", "settings": "read-out: Activity"}, "[15]": {"tested_on": "HGC-27", "assay": "Induction of apoptosis in human HGC-27 cells assessed as early apoptotic cells at 3 uM measured after 48 hrs by AnnexinV/FITC staining based flow cytometry method (reference value: 5.8%)", "assay_type": "functional"}, "[16]": {"tested_on": "HGC-27", "assay": "Induction of apoptosis in human HGC-27 cells assessed as late apoptotic cells at 9 uM measured after 48 hrs by AnnexinV/FITC staining based flow cytometry method (reference value: 1%)", "assay_type": "functional"}, "[17]": {"tested_on": "MGC-803", "assay": "Induction of apoptosis in human MGC-803 cells assessed as down-regulation of Bcl2 at 2.5 to 7.5 uM measured after 24 hrs by Western blot assay", "assay_type": "functional, cell-based", "settings": "dose 2.5-7.5 µM"}, "[18]": {"biological_target": "T1, NEDD8-activating enzyme E1 regulatory subunit (Homo sapiens) (UniProt Q13564)", "T1 sequence (whole entry)": "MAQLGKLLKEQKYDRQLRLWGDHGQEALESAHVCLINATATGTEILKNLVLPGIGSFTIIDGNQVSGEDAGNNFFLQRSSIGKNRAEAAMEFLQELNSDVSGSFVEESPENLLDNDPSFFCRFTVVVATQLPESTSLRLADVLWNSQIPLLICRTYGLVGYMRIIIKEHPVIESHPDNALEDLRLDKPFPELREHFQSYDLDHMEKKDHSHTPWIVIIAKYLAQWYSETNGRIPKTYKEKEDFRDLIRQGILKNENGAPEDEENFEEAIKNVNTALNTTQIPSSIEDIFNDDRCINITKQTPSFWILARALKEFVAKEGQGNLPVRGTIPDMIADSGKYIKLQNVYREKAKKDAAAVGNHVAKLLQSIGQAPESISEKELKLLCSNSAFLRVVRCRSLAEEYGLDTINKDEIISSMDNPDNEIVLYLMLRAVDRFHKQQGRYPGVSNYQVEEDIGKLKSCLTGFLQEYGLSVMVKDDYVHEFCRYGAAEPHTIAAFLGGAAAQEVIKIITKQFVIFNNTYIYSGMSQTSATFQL", "assay": "Inhibition of NAE-mediated neddylation in human MGC-803 cells assessed as cullin2-Nedd8 adduct formation at 2.5 to 7.5 uM measured after 24 hrs by western blot assay", "assay_type": "cell-based", "settings": "dose 2.5-7.5 µM"}, "[19]": {"tested_on": "HGC-27", "assay": "Antiproliferative activity against human HGC-27 cells assessed as cell survival at 7.5 uM preincubated with Z-VAD-FMK followed by compound addition and measured after 24 hrs by MTT assay", "assay_type": "functional, cell-based"}, "[20]": {"tested_on": "HGC-27", "assay": "Induction of apoptosis in human HGC-27 cells assessed as ROS levels at 3 uM measured after 24 hrs by DCFH-DA staining based flow cytometry assay (reference value: 6.8%)", "assay_type": "functional"}, "[21]": {"tested_on": "HGC-27", "assay": "Induction of apoptosis in human HGC-27 cells assessed as necrotic cells at 9 uM measured after 24 hrs by AnnexinV/FITC staining based flow cytometry method (reference value: 1.2%)", "assay_type": "functional"}, "[22]": {"tested_on": "MGC-803", "assay": "Induction of apoptosis in human MGC-803 cells assessed as upregulation of Bid at 2.5 to 7.5 uM measured after 24 hrs by Western blot assay", "assay_type": "functional, cell-based", "settings": "dose 2.5-7.5 µM"}, "[23]": {"biological_target": "T1, NEDD8-activating enzyme E1 regulatory subunit (Homo sapiens)", "assay": "Inhibition of NAE-mediated neddylation in human MGC-803 cells assessed as cullin4B-Nedd8 adduct formation at 2.5 to 7.5 uM measured after 24 hrs by western blot assay", "assay_type": "cell-based", "settings": "dose 2.5-7.5 µM"}, "[24]": {"tested_on": "HGC-27", "assay": "Inhibition of cell migration in human HGC-27 cells at 5 uM measured after 48 hrs by wound healing assay based inverted microscopic analysis", "assay_type": "functional"}, "[25]": {"tested_on": "A549", "assay": "Antiproliferative activity against human A549 cells assessed as inhibition of cell proliferation measured after 72 hrs by MTT assay", "assay_type": "functional, cell-based", "settings": "A549, 72 h"}, "[26]": {"tested_on": "HGC-27", "assay": "Induction of apoptosis in human HGC-27 cells assessed as early apoptotic cells at 9 uM measured after 48 hrs by AnnexinV/FITC staining based flow cytometry method (reference value: 5.8%)", "assay_type": "functional"}, "[27]": {"tested_on": "MGC-803", "assay": "Induction of apoptosis in human MGC-803 cells assessed as reduction of mitochondrial membrane potential at 5 uM measured after 24 hrs by JC-1 staining based Flowcytometry assay (reference value: 3.8%)", "assay_type": "functional", "design": "scale not given: the % may be the effect or the level left"}, "[28]": {"tested_on": "MGC-803", "assay": "Induction of apoptosis in human MGC-803 cells assessed as viable cells at 7.5 uM measured after 24 hrs by AnnexinV/FITC staining based flow cytometry method (reference value: 94.8%)", "assay_type": "functional", "settings": "read-out: Activity"}, "[29]": {"tested_on": "MGC-803", "assay": "Inhibition of cell migration in human MGC-803 cells at 5 uM measured after 48 hrs by wound healing assay based inverted microscopic analysis", "assay_type": "functional"}}, "note": "Active and inactive are the calls of the source. The calls are words filed in the database; no cut-off is given here."}
{"smiles": "CCCCCc1ccc(NC(=O)C2CCN(C/C=C/c3ccccc3)CC2)cc1", "values": [{"measurement": "Activity", "setting": "[1]", "value": 2.1, "unit": "%"}, {"measurement": "viability at 5 µM", "setting": "[2]", "value": 80.1, "unit": "%"}, {"measurement": "Activity", "setting": "[3]", "value": 25.94, "unit": "%"}, {"measurement": "IC50 at 72 h", "setting": "[4]", "value": 8.7, "unit": "µM"}, {"measurement": "Activity", "setting": "[5]", "value": 7, "unit": "%"}, {"measurement": "IC50", "setting": "[6]", "value": 3.74, "unit": "µM"}, {"measurement": "viability at 9 µM", "setting": "[7]", "value": 0.3, "unit": "%"}, {"measurement": "Activity", "setting": "[8]", "value": 33.6, "unit": "%"}, {"measurement": "Activity", "setting": "[9]", "value": 8.2, "unit": "%"}, {"measurement": "Activity", "setting": "[10]", "value": 19.31, "unit": "%"}, {"measurement": "Activity", "setting": "[11]", "value": 0, "unit": "%"}, {"measurement": "Activity", "setting": "[12]", "value": 9.8, "unit": "%"}, {"measurement": "inhibition in vivo at 50 mg/kg/day", "setting": "[13]", "value": 32.3, "unit": "%"}, {"measurement": "viability at 2.5 µM", "setting": "[14]", "value": 50.6, "unit": "%"}, {"measurement": "Activity", "setting": "[15]", "value": 6.2, "unit": "%"}, {"measurement": "Activity", "setting": "[16]", "value": 99.5, "unit": "%"}, {"measurement": "Activity", "setting": "[17]", "value": "Dose-Dependent Effect"}, {"measurement": "inhibition", "setting": "[18]", "value": "inactive"}, {"measurement": "Activity", "setting": "[19]", "value": "Active"}, {"measurement": "Activity", "setting": "[20]", "value": 11.4, "unit": "%"}, {"measurement": "Activity", "setting": "[21]", "value": 2.7, "unit": "%"}, {"measurement": "Activity", "setting": "[22]", "value": "Dose-Dependent Effect"}, {"measurement": "inhibition", "setting": "[23]", "value": "inactive"}, {"measurement": "inhibition at 5 µM", "setting": "[24]", "value": 60, "unit": "%"}, {"measurement": "IC50", "setting": "[25]", "value": 3.88, "unit": "µM"}, {"measurement": "Activity", "setting": "[26]", "value": 0.2, "unit": "%"}, {"measurement": "Activity", "setting": "[27]", "value": 17.4, "unit": "%"}, {"measurement": "viability at 7.5 µM", "setting": "[28]", "value": 9.1, "unit": "%"}, {"measurement": "inhibition at 5 µM", "setting": "[29]", "value": 40, "unit": "%"}]}
